Results: PubChem BioAssay AID256 (DTP/NCI, 2004)
Inconclusive results and toxic doses are left out. Rule for the calls: active = survival T/C of 150% or more; inactive = T/C below 125% in these data.

Test system: CD2F1 mice, L1210 leukemia ip, survival T/C
Assay: NCI In Vivo Anticancer Drug Screen. Data for tumor model L1210 Leukemia (intraperitoneal) in CD2F1 (CDF1) mice
Conditions: endpoint: mean survival time, higher = longer survival
Procedure, shortened: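 Ratio T/C, where T is the treated-group value and C the vehicle-dosed control value, from mice implanted with a transplantable tumor.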

[1] = dose: 100.0 mg/kg/injection, schedule: Q01DX001 (ip), vehicle: saline
[2] = dose: 200.0 mg/kg/injection, schedule: Q01DX001 (ip), vehicle: saline
[3] = dose: 400.0 mg/kg/injection, schedule: Q01DX001 (ip), vehicle: saline
[4] = dose: 100.0 mg/kg/injection, schedule: Q04DX003 (ip), vehicle: saline with Tween-80
[5] = dose: 200.0 mg/kg/injection, schedule: Q04DX003 (ip), vehicle: saline with Tween-80
[6] = dose: 400.0 mg/kg/injection, schedule: Q04DX003 (ip), vehicle: saline with Tween-80
[7] = dose: 100.0 mg/kg/injection, schedule: Q01DX001 (ip), vehicle: saline with Tween-80
[8] = dose: 200.0 mg/kg/injection, schedule: Q01DX001 (ip), vehicle: saline with Tween-80
[9] = dose: 400.0 mg/kg/injection, schedule: Q01DX001 (ip), vehicle: saline with Tween-80
[10] = dose: 100.0 mg/kg/injection, schedule: Q04DX002 (ip), vehicle: saline with Tween-80
[11] = dose: 200.0 mg/kg/injection, schedule: Q04DX002 (ip), vehicle: saline with Tween-80
[12] = dose: 400.0 mg/kg/injection, schedule: Q04DX002 (ip), vehicle: saline with Tween-80
[13] = dose: 6.25 mg/kg/injection, schedule: Q01DX009 (ip), vehicle: saline
[14] = dose: 12.5 mg/kg/injection, schedule: Q01DX009 (ip), vehicle: saline
[15] = dose: 25.0 mg/kg/injection, schedule: Q01DX009 (ip), vehicle: saline
[16] = dose: 25.0 mg/kg/injection, schedule: Q01DX009 (ip), vehicle: water
[17] = dose: 50.0 mg/kg/injection, schedule: Q01DX009 (ip), vehicle: saline
[18] = dose: 50.0 mg/kg/injection, schedule: Q01DX009 (ip), vehicle: water
[19] = dose: 100.0 mg/kg/injection, schedule: Q01DX009 (ip), vehicle: saline
[20] = dose: 100.0 mg/kg/injection, schedule: Q01DX009 (ip), vehicle: water

Measured: T/C

CC1(C(=O)O)CCOC1=O (configuration not stated)
inactive: dose: 100.0 mg/kg/injection, schedule: Q04DX002 (ip), vehicle: saline 102 % of control | dose: 200.0 mg/kg/injection, schedule: Q04DX002 (ip), vehicle: saline 107 % of control

Cc1c(/C=N/NC=O)[nH]c(=O)[nH]c1=O
inactive: [1] 89 % of control | [2] 91 % of control | [3] 86 % of control

O=C(N1CCC2(CC1)SSC1(CCN(C(=O)C(F)(F)F)CC1)S2)C(F)(F)F
inactive: [4] 88 % of control | [5] 90 % of control | [6] 90 % of control

CCC(=O)Nc1ccccc1OS(=O)(=O)N(C)C
inactive: [5] 97 % of control | [6] 98 % of control

Nc1ccnnc1
inactive: dose: 100.0 mg/kg/injection, schedule: Q04DX003 (ip), vehicle: saline 98 % of control | dose: 200.0 mg/kg/injection, schedule: Q04DX003 (ip), vehicle: saline 101 % of control

CC(=O)C(C(C)=O)C(=[C-]C(F)(F)F)C(F)(F)F.CC(=O)C(C(C)=O)C(=[C-]C(F)(F)F)C(F)(F)F.[Pd+2]
inactive: dose: 3.13 mg/kg/injection, schedule: Q04DX003 (ip), vehicle: distilled water + Tween-80 102 % of control | dose: 6.25 mg/kg/injection, schedule: Q04DX003 (ip), vehicle: distilled water + Tween-80 96 % of control | dose: 12.5 mg/kg/injection, schedule: Q04DX003 (ip), vehicle: distilled water + Tween-80 102 % of control

CCOc1cccc(Cc2cn(Cc3ccc(NC(=O)c4ccc(S(=O)(=O)F)cc4)cc3)c(=O)[nH]c2=O)c1
inactive: [7] 101 % of control | [8] 95 % of control | [9] 95 % of control

Oc1ccc(-c2nc3ccccc3s2)cc1
inactive: [7] 91 % of control | [8] 95 % of control | [9] 91 % of control

Cn1cnc2c(SCc3ccccc3)ncnc21
inactive: [4] 104 % of control | dose: 132.0 mg/kg/injection, schedule: Q04DX003 (ip), vehicle: saline with Tween-80 118 % of control | [5] 102 % of control | dose: 300.0 mg/kg/injection, schedule: Q04DX003 (ip), vehicle: saline with Tween-80 119 % of control

COC(=O)C1C(C(=O)OC)C2(C)C(=O)C1(C)C(c1ccccc1)=C2c1ccccc1 (configuration not stated)
inactive: [10] 101 % of control | [11] 90 % of control | [12] 90 % of control

c1ccc(CCN2COc3c(ccc4cccnc34)C2)cc1
inactive: dose: 12.5 mg/kg/injection, schedule: Q04DX003 (ip), vehicle: saline with Tween-80 102 % of control | dose: 25.0 mg/kg/injection, schedule: Q04DX003 (ip), vehicle: saline with Tween-80 91 % of control | dose: 50.0 mg/kg/injection, schedule: Q04DX003 (ip), vehicle: saline with Tween-80 98 % of control

O=C(CC(C(=O)c1ccccc1)c1ccccc1)c1ccccc1 (configuration not stated)
inactive: dose: 100.0 mg/kg/injection, schedule: Q01DX001 (ip), vehicle: Klucel (hydroxypropylcellulose) (HPC) 90 % of control | dose: 200.0 mg/kg/injection, schedule: Q01DX001 (ip), vehicle: Klucel (hydroxypropylcellulose) (HPC) 101 % of control | dose: 400.0 mg/kg/injection, schedule: Q01DX001 (ip), vehicle: Klucel (hydroxypropylcellulose) (HPC) 98 % of control

CN/N=C1\CCC2C3CCc4cc(O)ccc4C3CCC12C (configuration not stated)
inactive: dose: 25.0 mg/kg/injection, schedule: Q01DX009 (ip), vehicle: Klucel (hydroxypropylcellulose) (HPC) 102 % of control | dose: 50.0 mg/kg/injection, schedule: Q01DX009 (ip), vehicle: Klucel (hydroxypropylcellulose) (HPC) 103 % of control

CNC(=O)N(C)CC(O)C(O)C(O)C(O)CO (configuration not stated)
inactive: [4] 97 % of control | [5] 104 % of control | [6] 106 % of control

CC(=O)Nc1ccc(S(=O)(=O)F)cc1
inactive: dose: 50.0 mg/kg/injection, schedule: Q01DX009 (ip), vehicle: saline with Tween-80 93 % of control | [7] 91 % of control | dose: 100.0 mg/kg/injection, schedule: Q01DX009 (ip), vehicle: saline with Tween-80 93 % of control | [4] 94 % of control | [8] 100 % of control | [5] 102 % of control

COc1cc(-c2[nH]c(=S)[nH]c(=O)c2CCO)cc(OC)c1OC
inactive: [4] 98 % of control | [5] 98 % of control | [6] 91 % of control

CNc1nc(N(C)C)nc(N(C)C)n1
inactive: [13] 97 % of control | dose: 6.25 mg/kg/injection, schedule: Q01DX009 (ip), vehicle: water 107 % of control | [14] 97 % of control | dose: 12.5 mg/kg/injection, schedule: Q01DX009 (ip), vehicle: water 104 % of control | [15] 100 % of control | [16] 104 % of control | [17] 101 % of control | [18] 110 % of control | [19] 111 % of control | [20] 119 % of control

O=C(O)CCC(=O)c1ccc([N+](=O)[O-])cc1
inactive: [1] 101 % of control | [2] 97 % of control | [3] 97 % of control

Cc1cc(C(O)c2ccccn2)c2cc(Cl)cc(Cl)c2n1 (configuration not stated)
inactive: [10] 97 % of control | [11] 102 % of control | [12] 97 % of control

CC(=O)O[C@@H]1[C@@H](O)C2=C3[C@]4(C)[C@@H]1C(C)(C)C(=O)C[C@@H]4[C@]3(O)[C@H](OC(C)=O)[C@@]1(C[C@@H]1C)C2=O
inactive: dose: 3.12 mg/kg/injection, schedule: Q01DX009 (ip), vehicle: distilled water + Tween-80 102 % of control | dose: 3.12 mg/kg/injection, schedule: Q01DX009 (ip), vehicle: saline 96 % of control | dose: 6.25 mg/kg/injection, schedule: Q01DX009 (ip), vehicle: distilled water + Tween-80 105 % of control | [13] 102 % of control | dose: 12.5 mg/kg/injection, schedule: Q01DX009 (ip), vehicle: distilled water + Tween-80 100 % of control | [14] 104 % of control | dose: 25.0 mg/kg/injection, schedule: Q01DX009 (ip), vehicle: distilled water + Tween-80 100 % of control | [15] 104 % of control | dose: 50.0 mg/kg/injection, schedule: Q01DX009 (ip), vehicle: distilled water + Tween-80 103 % of control | [17] 108 % of control | dose: 100.0 mg/kg/injection, schedule: Q01DX009 (ip), vehicle: distilled water + Tween-80 96 % of control | [19] 111 % of control

NC(=O)c1ncnnc1N
inactive: dose: 100.0 mg/kg/injection, schedule: Q01DX001 (ip), vehicle: carboxymethylcellulose (CMC) 93 % of control | dose: 200.0 mg/kg/injection, schedule: Q01DX001 (ip), vehicle: carboxymethylcellulose (CMC) 102 % of control | dose: 400.0 mg/kg/injection, schedule: Q01DX001 (ip), vehicle: carboxymethylcellulose (CMC) 102 % of control

CN(C)c1ccc(/C=C/c2nc(N)nc(N)c2[N+](=O)[O-])cc1
inactive: [16] 98 % of control | [18] 97 % of control | [20] 97 % of control | dose: 200.0 mg/kg/injection, schedule: Q01DX009 (ip), vehicle: water 92 % of control | dose: 400.0 mg/kg/injection, schedule: Q01DX009 (ip), vehicle: water 90 % of control

CSc1ncc(C=O)c(N)n1
inactive: [7] 96 % of control | [8] 97 % of control | [9] 95 % of control
